Values of other authors in patent US20040053963A1, “Urotensin-II receptor antagonists” (priority 2003, published 2004).

Tested on: rat-isolated aorta
Settings: Ames et. al. Nature 1999, 401, 282

For `CC(C)[C@H](NC(=O)[C@@H]1CSSC[C@H](NC(=O)[C@H](CC(=O)O)NC(=O)[C@@H]2CCCN2C(=O)[C@@H](NC(=O)[C@@H](N)CCC(=O)O)[C@@H](C)O)C(=O)N[C@@H](Cc2ccccc2)C(=O)N[C@@H](Cc2c[nH]c3ccccc23)C(=O)N[C@@H](CCCCN)C(=O)N[C@@H](Cc2ccc(O)cc2)C(=O)N1)C(=O)O` [Human Urotensin-II], the contractile activity is given as “most potent contractile agonist identified to date”.
